# Experimental data taken from US20100297159A1, “THOMSEN-FRIEDENREICH DISACCHARIDE MODIFIED IMMUNOGEN (TFD), PREPARATION PROCEDURE, COMPOSITIONS COMPRISING IT, USES, AND TREATMENT METHODS” (CONSEJO NACIONAL DE INVESTIGACIONES CIETIFICAS Y TECNICAS …, priority 2007, published 2010).
# Read-outs that look alike come from different tables or passages of the source.
# Key:
# [1] = system: TFD-BSA antigen / IgG, IgM antibodies interaction; experiment: Competition ELISA, inhibition of antibody interaction with TFD-BSA antigen; type: binding, mice; details: for IC50: antisera from BzlαTFD-Lys5-KLHs immunization; for Inhibitory effect in the interaction of TFD-BSA/antigen T-IgG/IgM antibodies: competition ELISA, TFD-BSA and antigen T, in words
# Experimental: (§1) Target antigens (10 μg/ml) were adhered to multi-well plates of polystirene in saline phosphate buffer (PBS; 10 mM sodium phosphate, pH 7.2 and 150 mM NaCl) overnight at 4° C. Glycolipids were diluted in methanol and dried for 1 hour at 60° C. After covering the wells with the antigens, these were saturated with PBS-1% BSA-0.05% Tween 20 for 1 hour at 37° C. Serial dilutions of antiserum were incubates with the antigen for 2 hours at room temperature, and then washed 5 times with PBS. The adhered antigen-antibody complex was detected with a 1/1000 dilution of anti-IgG goat antibody or mouse IgM conjugated with peroxydase in PBS-0.05% Tween 20 (PBS-T), incubates at room temperature for 1 hour, and washed 5 times with PBS. Color reaction was developed as described for ELA.
# (§2) The three antibodies showing highest anti-TFD and anti-antigen T levels were analyzed by competition ELISA, and results were averaged. Optimum antiserum dilutions with an optical density of 1.0 against TFD-BSA and T-MUC1 (10 μg/ml) as blanc antigen were determined in preliminary experiments. Competition ELISA stages were equal to those in ELISA, except in that optimal antiserum dilution was pre-incubated with several related antigens in carbohydrates for 1 hour at room temperature before being added to the wells. Minimum concentration of carbohydrates required for 50% inhibition (ID50) of antigen-antibody interaction is a more specific parameter.
# [2] = system: T-MUC1 antigen / IgG, IgM antibodies interaction; experiment: Competition ELISA, inhibition of antibody interaction with T-MUC1 antigen; type: binding, mice; details: antisera from BzlαTFD-Lys5-KLHs immunization
# Experimental: as §1, §2
# [3] = system: HT29 tumor cell / antibody interaction; experiment: Competition ELISA of cells, inhibition of antibody interaction with HT29 tumor cells; type: cell-based, human; details: for Inhibitory effect relative to BzlαTFD, IgM mediated interaction: times less inhibitory effect than BzlαTFD; for Inhibitory effect, IgM mediated interaction: in words
# Experimental: Level of antibodies against epithelial tumor cells was determined using lines HT29, MCF7, and T47D. Tumor cells were cultured to sub-comfluence in media recommended by ATCC, and harvested by treatment with trypsin. They were adsorbed to multi-well plates, fixed with cold methanol for […] and saturated with PBS-T for 1 hour at room temperature. ELISA of cells was carried out by incubating serial dilutions of mouse sera against the different tumor lines for 2 hours at room temperature in PBS, and then was washed 4 times with PBS-T. The adhered antigen-antibody complex was detected with a 1/1000 dilution of anti-IgG goat antibody or mouse IgM conjugated to a peroxidase in PBS-T, incubated for 1 hour at room temperature, and washed […] PBS-T. Color reaction was developed as described for ELA. Steps for competition ELISA of cells were the same as for ELISA of cells, except in that the optimum anti-sera dilution was pre-incubated with several antigens related to carbohydrates for 1 hour at room temperature prior to the addition to the plate wells.
# [4] = IgG, read-out: Concentration required to produce 50% inhibition (IC50), TFD-BSA antigen, IgG
# [5] = IgM, read-out: Concentration required to produce 50% inhibition (IC50), TFD-BSA antigen, IgM
# [6] = IgG, read-out: Concentration required to produce 50% inhibition (IC50), T-MUC1 antigen, IgG
# [7] = IgM, read-out: Concentration required to produce 50% inhibition (IC50), T-MUC1 antigen, IgM
# [8] = Homo sapiens, HT-29, HT29, IgG, read-out: Concentration requested to produce 50% inhibition (IC50), antibodies with HT29 tumor cell interaction, IgG
# [9] = Homo sapiens, HT-29, HT29, IgM, read-out: Concentration requested to produce 50% inhibition (IC50), antibodies with HT29 tumor cell interaction, IgM
# [10] = HT29, IgM, read-out: Concentration requested to produce 50% inhibition (IC50), antibodies with HT29 tumor cell interaction, IgM
# [11] = HT29, IgG, read-out: Concentration requested to produce 50% inhibition (IC50), antibodies with HT29 tumor cell interaction, IgG
"IC50 [1, 4] [mM]","IC50 [1, 5] [mM]","IC50 [2, 6] [mM]","IC50 [2, 7] [mM]","IC50 [3, 8] [mM]","IC50 [3, 9] [mM]","IC50 [3, 10] [mM]","IC50 [3, 11] [mM]",SMILES,Inhibitory effect in the interaction of TFD-BSA/antigen T-IgG/IgM antibodies [1],"Inhibitory effect relative to BzlαTFD, IgM mediated interaction ([3]; HT29) [times]","Inhibitory effect, IgM mediated interaction ([3]; HT29)"
> 100,> 100,> 100,> 100,–,–,> 100,> 100,CC(=O)NC1C(O)OC(CO)C(O)C1O (centres unmarked) [GlcNAc],did not show any effect,–,did not show inhibitory effect
> 100,> 100,> 100,> 100,> 100,> 100,–,–,OCC1OC(O)C(O)C(O)C1O (centres unmarked) [Glc],did not show any effect,–,–
10,3.5,20,> 20,–,–,8,> 10,"CC(=O)N[C@@H]1[C@@H](O[C@@H]2O[C@H](CO)[C@H](O)[C@H](O)[C@H]2O)[C@@H](O)[C@@H](CO)O[C@@H]1O [TFD, Galβ3GalNAcα]",significant inhibition,4,–
–,–,–,–,–,–,2,> 10,CC(=O)N[C@H]1[C@@H](Oc2ccc([N+](=O)[O-])cc2)O[C@H](CO)[C@H](O)[C@@H]1O[C@@H]1O[C@H](CO)[C@H](O)[C@H](O)[C@H]1O [pNPαTFD],–,–,greatest inhibitors

# The next lines start with the molecule.
SMILES,"IC50 [1, 4] [mM]","IC50 [1, 5] [mM]","IC50 [2, 6] [mM]","IC50 [2, 7] [mM]","IC50 [3, 8] [mM]","IC50 [3, 9] [mM]","IC50 [3, 10] [mM]","IC50 [3, 11] [mM]",Inhibitory effect in the interaction of TFD-BSA/antigen T-IgG/IgM antibodies [1],"Inhibitory effect relative to BzlαTFD, IgM mediated interaction ([3]; HT29) [times]","Inhibitory effect, IgM mediated interaction ([3]; HT29)"
CC(=O)NC1C(OCc2ccccc2)OC(CO)C(O)C1O (centres unmarked) [BzlαGalNAc],5,1,20,> 20,8,8,–,–,significant inhibition,4,–
CC(=O)NC1C(OCc2ccccc2)OC(CO)C(O)C1OC1OC(CO)C(O)C(O)C1O (centres unmarked) [BzlαTFD],2.5,0.1,10,> 10,4,2,–,–,significant inhibition,–,greatest inhibitors
CC(=O)NC1C(O)OC(CO)C(O)C1O (centres unmarked) [GalNAc],20,30,> 100,> 100,> 100,–,20,–,–,10,–
OCC1OC(O)C(O)C(O)C1O (centres unmarked) [Gal],–,–,–,–,–,–,–,–,–,–,did not show inhibitory effect
